Data: PubChem BioAssay AID1845207 (Molecular Pharmacology Branch, DTP, NCI, 2023)
Several values for one entry are separate records, joined by “and”; a condition that tells them apart may be missing. Equal values may be shown once.

System: NCI-H1876 tumor spheroid viability
Test: Anticancer human tumor NCI-H1876 cell line growth inhibition;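 further: spheroids exposed to compounds for seven days before the viability read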;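 on viability, T/C: percent of DMSO vehicle control viability so 100% = vehicle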
Settings: spheroids with HUVEC and MSC; for viability, T/C: stronger effect = lower value
Outline: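 Single agents and combinations were tested on spheroids built from tumor cells plus HUVEC and hMSC, at half-log dilutions starting at or near clinical Cmax, else 10 microM; final DMSO 0.25% (v/v).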

[1] = curve of first compound, second compound 30 pM
[2] = curve of first compound, second compound 94.9 pM
[3] = curve of first compound, second compound 0.0003 µM
[4] = curve of first compound, second compound 0.000949 µM
[5] = curve of first compound, second compound 0.003 µM

CNCc1ccc(-c2cc(-c3nc(-c4ccc(S(=O)(=O)C(C)C)cc4)cnc3N)on2)cc1 + COc1cc2c(cc1O)CCNC21CSC2c3c(OC(C)=O)c(C)c4c(c3C(COC1=O)N1C(O)C3Cc5cc(C)c(OC)c(O)c5C(C21)N3C)OCO4
IC50 [1]: 571 nM
IC50 [2]: 223 nM
IC50 [3]: < 9.49 nM
IC50 [4]: < 9.49 nM
IC50 [5]: < 9.49 nM
viability, T/C (second compound 30 pM, first compound 0.00949 µM): 103%
viability, T/C (second compound 30 pM, first compound 0.03 µM): 103%
viability, T/C (second compound 30 pM, first compound 0.0949 µM): 97.8%
viability, T/C (second compound 30 pM, first compound 0.3 µM): 67.2%
viability, T/C (second compound 30 pM, first compound 0.949 µM): 36.5%
viability, T/C (second compound 30 pM, first compound 3 µM): 16.2%
viability, T/C (second compound 94.9 pM, first compound 0.00949 µM): 94.4%
viability, T/C (second compound 94.9 pM, first compound 0.03 µM): 89%
viability, T/C (second compound 94.9 pM, first compound 0.0949 µM): 70.5%
viability, T/C (second compound 94.9 pM, first compound 0.3 µM): 42.5%
viability, T/C (second compound 94.9 pM, first compound 0.949 µM): 21.2%
viability, T/C (second compound 94.9 pM, first compound 3 µM): 10.1%
viability, T/C (second compound 0.0003 µM, first compound 0.00949 µM): 27.9%
viability, T/C (second compound 0.0003 µM, first compound 0.03 µM): 24.4%
viability, T/C (second compound 0.0003 µM, first compound 0.0949 µM): 16.4%
viability, T/C (second compound 0.0003 µM, first compound 0.3 µM): 12.7%
viability, T/C (second compound 0.0003 µM, first compound 0.949 µM): 9.09%
viability, T/C (second compound 0.0003 µM, first compound 3 µM): 6.61%
viability, T/C (second compound 0.000949 µM, first compound 0.00949 µM): 4.01%
viability, T/C (second compound 0.000949 µM, first compound 0.03 µM): 3.41%
viability, T/C (second compound 0.000949 µM, first compound 0.0949 µM): 3.12%
viability, T/C (second compound 0.000949 µM, first compound 0.3 µM): 3.01%
viability, T/C (second compound 0.000949 µM, first compound 0.949 µM): 4.43%
viability, T/C (second compound 0.000949 µM, first compound 3 µM): 2.48%
viability, T/C (second compound 0.003 µM, first compound 0.00949 µM): 0.56%
viability, T/C (second compound 0.003 µM, first compound 0.03 µM): 1.11%
viability, T/C (second compound 0.003 µM, first compound 0.0949 µM): 1.21%
viability, T/C (second compound 0.003 µM, first compound 0.3 µM): 0.84%
viability, T/C (second compound 0.003 µM, first compound 0.949 µM): 0.9%
viability, T/C (second compound 0.003 µM, first compound 3 µM): 0.8%

CC(C)n1c(=O)n(C)c2cnc3cc(F)c(-c4ccc(OCCCN5CCCCC5)nc4)cc3c21 + COc1cc2c(cc1O)CCNC21CSC2c3c(OC(C)=O)c(C)c4c(c3C(COC1=O)N1C(O)C3Cc5cc(C)c(OC)c(O)c5C(C21)N3C)OCO4
IC50 [1]: > 10000 nM
IC50 [2]: > 10000 nM
IC50 [3]: < 31.6 nM
IC50 [4]: < 31.6 nM
IC50 [5]: < 31.6 nM
viability, T/C (second compound 30 pM, first compound 0.0316 µM): 94%
viability, T/C (second compound 30 pM, first compound 0.1 µM): 93.1%
viability, T/C (second compound 30 pM, first compound 0.316 µM): 95%
viability, T/C (second compound 30 pM, first compound 1 µM): 95.5%
viability, T/C (second compound 30 pM, first compound 3.16 µM): 93.7%
viability, T/C (second compound 30 pM, first compound 10 µM): 86.7%
viability, T/C (second compound 94.9 pM, first compound 0.0316 µM): 66.3%
viability, T/C (second compound 94.9 pM, first compound 0.1 µM): 58.5%
viability, T/C (second compound 94.9 pM, first compound 0.316 µM): 49.3%
viability, T/C (second compound 94.9 pM, first compound 1 µM): 53.5%
viability, T/C (second compound 94.9 pM, first compound 3.16 µM): 55.2%
viability, T/C (second compound 94.9 pM, first compound 10 µM): 46.8%
viability, T/C (second compound 0.0003 µM, first compound 0.0316 µM): 10.7%
viability, T/C (second compound 0.0003 µM, first compound 0.1 µM): 9.04%
viability, T/C (second compound 0.0003 µM, first compound 0.316 µM): 11%
viability, T/C (second compound 0.0003 µM, first compound 1 µM): 9.85%
viability, T/C (second compound 0.0003 µM, first compound 3.16 µM): 12.3%
viability, T/C (second compound 0.0003 µM, first compound 10 µM): 9.65%
viability, T/C (second compound 0.000949 µM, first compound 0.0316 µM): 2.08%
viability, T/C (second compound 0.000949 µM, first compound 0.1 µM): 1.93%
viability, T/C (second compound 0.000949 µM, first compound 0.316 µM): 1.77%
viability, T/C (second compound 0.000949 µM, first compound 1 µM): 1.8%
viability, T/C (second compound 0.000949 µM, first compound 3.16 µM): 2.69%
viability, T/C (second compound 0.000949 µM, first compound 10 µM): 2.47%
viability, T/C (second compound 0.003 µM, first compound 0.0316 µM): 0.9%
viability, T/C (second compound 0.003 µM, first compound 0.1 µM): 0.67%
viability, T/C (second compound 0.003 µM, first compound 0.316 µM): 0.58%
viability, T/C (second compound 0.003 µM, first compound 1 µM): 0.77%
viability, T/C (second compound 0.003 µM, first compound 3.16 µM): 0.63%
viability, T/C (second compound 0.003 µM, first compound 10 µM): 1.09%

COc1cc(C)[nH]c(=O)c1CN1CCc2c(Cl)cc(C(OC)C3COC3)c(Cl)c2C1=O (configuration not stated)
viability, T/C (compound 0.0316 µM): 106% and 117% and 105%
viability, T/C (compound 0.1 µM): 109% and 112% and 103%
viability, T/C (compound 0.316 µM): 101% and 110% and 98.1%
viability, T/C (compound 1 µM): 102% and 103% and 92.3%
viability, T/C (compound 3.16 µM): 98.3% and 96.9% and 95.2%
viability, T/C (compound 10 µM): 94.2% and 77.4% and 86.5%
IC50 (curve of compound): > 10000 nM
